The values below come from patent US20030166530A1, “Conjugate heat shock protein-binding peptides” (priority 1997, published 2003).

Ends that are not written are not given here.

One test concerns EG7 cells. The test is described as follows: EG7 tumor cell challenge after immunization. The test is classed as in vivo, C57BL/6 mice. The note with it: for tumor-free animals: eight mice per group. On the procedure:
C57BL/6 mice, 8-10 weeks old, were immunized intradermally with one of the following (eight mice in each group): (a)5 μl TiterMax and 5 μg OVA peptide; (b) 15 μg hsp70 and 5 μg OVA peptide; (c) 5 μl TiterMax and […] (OVA-BiP); (d) 15 μg hsp70 and 12 μg OVA-BiP; (e) control (four animals only in this group); (f) 5 μg OVA peptide; or (g) 12 μg OVA-BiP. The mice then were injected with 4×10^6 EG7 cells. Tumor size was evaluated over time by measuring two diameters, the greatest diameter and the diameter perpendicular to the greatest diameter, and then calculating the average diameter. The results are shown in FIG. 8A-G (corresponding to groups a-g, as set forth above).

The conditions of test [1]: 17- versus 19-substituted herbimycin derivative; cited from earlier work.
Test [2] concerns the target T1, gp96 in the presence of herbimycin A (Mus musculus, UniProt P08113).
T1 construct: mouse cDNA encoding mature gp96 (i.e., wherein the endoplasmic reticulum signal peptide has been removed); made in house; host or cells: Escherichia coli BL21 (pET 11a)
The test is described as follows: Phage display affinity panning on gp96 in the presence of herbimycin A. The note with it: 20 mM HEPES pH 7.5, 100 mM KCl, 25 mM CaCl2, 5 mM MgAcetate, TWEEN-20; herbimycin A present. The format is binding. On the procedure:
Preparation of a gp96 expression vector. The mouse cDNA encoding mature gp96 (i.e., wherein the endoplasmic reticulum signal peptide has been removed) was incorporated into the pET 11a expression vector (Novagen) as follows. Gp96 cDNA insert was prepared by polymerase chain reaction (PCR) of a pRc/CMV clone containing the cDNA using the following oligonucleotide primers: […]
Expression of gp96. pET11 gp96 was transformed into BL21 Escherichia coli cells, and plated on LB plates containing ampicillin (50μg/ml). One of the resulting colonies was used to inoculate a 20 ml overnight culture of 2×TY medium containing ampicillin (150 μg/ml). The following day, the resulting culture was spun down and the harvested bacteria were resuspended in 1 ml of fresh medium. Two one liter cultures were then each inoculated with 0.5 ml of the harvested cells and allowed to grow at 37° C. until the optical density, measured at 600 nm, was 0.5. Then, IPTG was added to a concentration of 1 mM and the cells were cultured for another 3 hours before being harvested by centrifugation. The resulting cell pellet was resuspended in 20 ml of 50 mM HEPES pH 7.5, 50 mM KCl, 5 mM MgAcetate, 20% sucrose and 1 mM PMSF. Cell extracts were prepared by pressure shearing in a French Press. The lysates were then spun at 100,000×g for 1.5 hours and the supernatant, which constituted crude gp96 extract, was collected. […]

Test [3] relates to OVA-primed EL-4 target cells. Put plainly: 51Cr release assay with effector cells from immunized mice. The test is classed as in vivo, C57BL/6 mice. The note with it: mice immunized once or twice. On the procedure:
Preparation of hsp70 and/or peptide for use in immunization. Approximately 15 μg hsp70 and 12 μg OVA-BiP were mixed, on ice, to a final volume of 10 μL in Buffer Y (to produce a final concentration of 21.5 μM hsp70, 0.5 mM OVA-BiP, 20 mM HEPES pH 7.0, 150 mM KCl, 10 mM (NH4)2SO4, 2 mM MgCl2 and 2 mM MgADP, pH 7.0). The mixture was incubated for 30 minutes at 37° C. and was used for in vivo immunizations. Similar incubations were carried out with (i) 5 μl TiterMax adjuvant (Vaxcell, Norcross, Ga.) and 12 μg OVA-BiP (ii) 5 μl TiterMax and 5 μg OVA peptide or (iii) 12 μg OVA-BiP alone.
Preparation of cells for chromium release assay. […]
Chromium release assay. […] Supernatants were harvested and radioactivitiy released by cytotoxic activity was measured in a gamma counter. The percent specific lysis was calculated as 100×[(cpm release by CTL-cpm spontaneously released)/(cpm maximal release-cpm spontaneously released)]. Maximal release was determined by adding 1% NP-40 to lyse all cells. Spontaneous release of all target in the absence of effector cells (measured in a culture of target cells (in the absence of effector cells) maintained in parallel for the duration of the assay) was less than 20% of the maximal release.

Setting [4] is: peptide alone (without TiterMax or hsp70).

T1 sequence (P08113 22-802): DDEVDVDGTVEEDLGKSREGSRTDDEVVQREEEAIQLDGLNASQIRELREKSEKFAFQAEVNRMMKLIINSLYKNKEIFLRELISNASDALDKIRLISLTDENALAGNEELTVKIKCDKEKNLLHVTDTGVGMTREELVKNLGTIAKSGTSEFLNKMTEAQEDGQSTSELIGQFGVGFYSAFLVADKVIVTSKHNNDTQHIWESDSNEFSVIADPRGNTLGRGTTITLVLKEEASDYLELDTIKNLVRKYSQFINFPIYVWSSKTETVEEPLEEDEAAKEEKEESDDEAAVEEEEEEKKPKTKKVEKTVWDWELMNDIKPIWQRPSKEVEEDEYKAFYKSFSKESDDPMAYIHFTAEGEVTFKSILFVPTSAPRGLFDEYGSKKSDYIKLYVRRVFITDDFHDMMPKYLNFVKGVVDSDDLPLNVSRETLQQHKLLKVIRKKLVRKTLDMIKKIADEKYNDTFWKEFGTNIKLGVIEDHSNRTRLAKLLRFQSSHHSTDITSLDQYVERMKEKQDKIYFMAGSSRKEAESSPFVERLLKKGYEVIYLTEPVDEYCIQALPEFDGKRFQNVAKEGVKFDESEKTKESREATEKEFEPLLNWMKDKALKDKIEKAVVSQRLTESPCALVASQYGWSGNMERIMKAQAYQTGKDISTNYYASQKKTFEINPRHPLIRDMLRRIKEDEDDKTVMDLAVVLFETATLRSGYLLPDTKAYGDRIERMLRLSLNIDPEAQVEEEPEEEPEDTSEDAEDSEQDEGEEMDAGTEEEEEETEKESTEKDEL

On to “Ser Ile Ile Asn Phe Glu Lys Leu (SIINFEKL; printed: Ser Ile Ile Asn Phe Glu Lys Leu) [OVA-peptide, reference compound]”, for which the tumor-free animals result in the test with EG7 cells (setting [4]) is “no animals were tumor-free”.
On to 17-allylamino herbimycin, for which the relative activity entry in test [1] was “more active than 19-allylamino herbimycin”.
For the substance “Phe-His-Trp-Trp-Trp (FHWWW; printed: Phe-His-Trp-Trp-Trp) [SEQ ID NO:320]”, the “binding of phage-expressed peptides to gp96” value in test [2] was “appeared to be favored”.
Regarding SIINFEKLGSGHWDFAWPW [OVA-BiP], the “OVA-specific cytotoxic immune response (killing of OVA-primed EL-4 target cells)” value in test [3] is recorded as “significant anti-OVA immune response”. Also, in the test on EG7 cells (peptide administered with TiterMax adjuvant), the “tumor diameter and detectable tumor formation” value is “superior to OVA peptide (FIG. 8A) in reducing tumor diameter and in preventing detectable tumor formation altogether”. The average tumor diameters result in the test with EG7 cells (peptide alone (without TiterMax or hsp70), compared with OVA-peptide alone) was “average tumor diameters were smaller”. For the same substance, the tumor-free animals in the test on EG7 cells (setting [4]) was 2/8.
